Inhibition data for 15 compounds are collected here from patent US6410558B1, “Fungicides for the control of take-all disease of plants” (Monsanto Technology LLC, priority 1991, dated 2002).

One assay has as its system Gaeumannomyces graminis var. tritici (Ggt). Put plainly: In vitro Assay: mycelial growth of Ggt on minimal media agar plates containing test compound. Format: cell-based. The settings on record: Gaeumannomyces graminis; 0.1 ppm in minimal media agar; dark, 19-20° C., 4 to 5 days; diameter of mycelial growth; read-out: In vitro (ppm) 0.1, Percent Inhibition. How it is done:
The test compounds (0.25 mL of an appropriate stock solution in acetone) are incorporated into 25 mL minimal media agar [(prepared by autoclaving a solution of 17.5 g Czapek Dox broth (Difco), 7.5 g purified agar or Bacto-agar (Difco), and 500 mL distilled/deionized water, and then adding 50 μL of 1 mg/mL thiamine hydrochloride and 50 μL of 1 mg/mL biotin in 5% ethanol] and plates are prepared.
Each plate is inoculated by placing in a triangular shape three 4-mm plugs of Gaeumannomyces graminis var. tritici (Ggt) grown on the minimal media agar described above. The plates are incubated in the dark at 19-20° C. for 4 to 5 days. The growth of the fungus is measured as the diameter of the mycelial growth. The result is expressed as Percent Inhibition, calculated as [1-[(mm growth on treated plate −4)/(mm growth on control plate −4)]]×100.
The term inhibition denotes the relative decrease from the control value, in per cent. `CCN(COC)C(=O)c1c(Cl)cccc1[Si](C)(C)C` [Example 46, 2-Chloro-N-ethyl-N-(methoxymethyl)-6-(trimethylsilyl)benzamide]: the inhibition at 0.1 ppm is 15%.
In the case of `CCN(C(C)=O)C(=O)c1c(Cl)cccc1[Si](C)(C)C` [Example 47, N-Acetyl-2-chloro-N-ethyl-6-(trimethylsilyl)benzamide], the inhibition at 0.1 ppm was under 0%.
Take `CCN(COC)C(=O)c1ccccc1[Si](C)(C)C` [Example 50, N-Ethyl-N-(methoxymethyl)-2-(trimethylsilyl)benzamide]: the inhibition at 0.1 ppm stood at 3%.
`CCN(CC)C(=O)c1ccc(C)c(F)c1[Si](C)(C)C` [Example 57, N,N-Diethyl-3-fluoro-4-methyl-2-(trimethylsilyl)benzamide]: the inhibition at 0.1 ppm stood at 10%.
Consider `CCN(CC)C(=O)c1ccc(C)cc1[Si](C)(C)C` [Example 58, N,N-Diethyl-4-methyl-2-(trimethylsilyl)benzamide], for which the inhibition at 0.1 ppm stood at 13%.
Regarding `CCN(CC)C(=O)c1c(Cl)cc(C)cc1[Si](C)(C)C` [Example 59, N,N-Diethyl-2-chloro-4-methyl-6-(trimethylsilyl)benzamide], the inhibition at 0.1 ppm worked out at 6%.
On to `CCN(CC)C(=O)c1c(C)cc(C)cc1[Si](C)(C)C` [Example 60, N,N-Diethyl-2,4-dimethyl-6-(trimethylsilyl)benzamide], for which the inhibition at 0.1 ppm was under 0%.
`CCN(CC)C(=O)c1cc(C)ccc1[Si](C)(C)C` [Example 63, N,N-Diethyl-5-methyl-2-(trimethylsilyl)benzamide]: the inhibition at 0.1 ppm was under 0%.
On the same count and under the same terms, the value for `CCN(CC)C(=O)c1cccc(C)c1[Si](C)(C)C` [Example 64, N,N-diethyl-3-methyl-2-(trimethylsilyl)benzamide] was 20%.
Turning to `CCNC(=O)c1ccsc1[Si](C)(C)C` [Example 70, N-Ethyl-2-(trimethylsilyl)-3-thiophenecarboxamide], the inhibition at 0.1 ppm is under 0%.
Consider `CCNC(=O)c1c(Cl)cccc1-c1ccccc1C` [Example 72, 3-Chloro-N-ethyl-2′-methyl-[1,1′-biphenyl]-2-carboxamide], for which the inhibition at 0.1 ppm was under 0%.
With `CCNC(=O)c1c(Cl)cccc1-c1cccc2ccccc12` [Example 73, 2-Chloro-N-ethyl-6-(1-naphthalenyl)benzamide], the inhibition at 0.1 ppm stood at 13%.
Take `CCN(CC)C(=S)c1ccc(C)c(F)c1[Si](C)(C)C` [Example 75, N,N-Diethyl-3-fluoro-4-methyl-2-(trimethylsilyl)thiobenzamide]: the inhibition at 0.1 ppm was determined as 5%.
In the case of `CCNC(=S)c1c(Cl)cccc1[Si](C)(C)C` [Example 76, 2-Chloro-N-ethyl-6-(trimethylsilyl)thiobenzamide], the inhibition at 0.1 ppm is under 0%.
For `CC(C)SC(=O)c1c(Cl)cccc1[Si](C)(C)C` [Example 78, 2-Chloro-6-(trimethylsilyl)-benzenecarbothioic acid, S-(1-methylethyl) ester], the inhibition at 0.1 ppm came to 12%.

The assay is the same for the next values; noted with them: Gaeumannomyces graminis; 1 ppm in minimal media agar; dark, 19-20° C., 4 to 5 days; diameter of mycelial growth; read-out: In vitro (ppm) 1, Percent Inhibition.
Take `CCN(COC)C(=O)c1c(Cl)cccc1[Si](C)(C)C` [Example 46, 2-Chloro-N-ethyl-N-(methoxymethyl)-6-(trimethylsilyl)benzamide]: the inhibition at 1 ppm was found to be 11%.
For the compound `CCN(C(C)=O)C(=O)c1c(Cl)cccc1[Si](C)(C)C` [Example 47, N-Acetyl-2-chloro-N-ethyl-6-(trimethylsilyl)benzamide], the inhibition at 1 ppm is under 0%.
`CCN(COC)C(=O)c1ccccc1[Si](C)(C)C` [Example 50, N-Ethyl-N-(methoxymethyl)-2-(trimethylsilyl)benzamide]: the inhibition at 1 ppm is 10%.
On to `CCN(CC)C(=O)c1ccc(C)c(F)c1[Si](C)(C)C` [Example 57, N,N-Diethyl-3-fluoro-4-methyl-2-(trimethylsilyl)benzamide], for which the inhibition at 1 ppm is under 0%.
In the case of `CCN(CC)C(=O)c1ccc(C)cc1[Si](C)(C)C` [Example 58, N,N-Diethyl-4-methyl-2-(trimethylsilyl)benzamide], the inhibition at 1 ppm was 6%.
As for `CCN(CC)C(=O)c1c(Cl)cc(C)cc1[Si](C)(C)C` [Example 59, N,N-Diethyl-2-chloro-4-methyl-6-(trimethylsilyl)benzamide], the inhibition at 1 ppm is under 0%.
For the compound `CCN(CC)C(=O)c1c(C)cc(C)cc1[Si](C)(C)C` [Example 60, N,N-Diethyl-2,4-dimethyl-6-(trimethylsilyl)benzamide], the inhibition at 1 ppm is under 0%.
Same read-out and setting: the value for `CCN(CC)C(=O)c1cc(C)ccc1[Si](C)(C)C` [Example 63, N,N-Diethyl-5-methyl-2-(trimethylsilyl)benzamide] was 40%; that for `CCN(CC)C(=O)c1cccc(C)c1[Si](C)(C)C` [Example 64, N,N-diethyl-3-methyl-2-(trimethylsilyl)benzamide] was 14%.
Turning to `CCNC(=O)c1ccsc1[Si](C)(C)C` [Example 70, N-Ethyl-2-(trimethylsilyl)-3-thiophenecarboxamide], the inhibition at 1 ppm is 15%.
In the case of `CCNC(=O)c1c(Cl)cccc1-c1ccccc1C` [Example 72, 3-Chloro-N-ethyl-2′-methyl-[1,1′-biphenyl]-2-carboxamide], the inhibition at 1 ppm amounted to 59%.
As to `CCNC(=O)c1c(Cl)cccc1-c1cccc2ccccc12` [Example 73, 2-Chloro-N-ethyl-6-(1-naphthalenyl)benzamide], the inhibition at 1 ppm came out at 60%.
Consider `CCN(CC)C(=S)c1ccc(C)c(F)c1[Si](C)(C)C` [Example 75, N,N-Diethyl-3-fluoro-4-methyl-2-(trimethylsilyl)thiobenzamide], for which the inhibition at 1 ppm stood at 26%.
In the case of `CCNC(=S)c1c(Cl)cccc1[Si](C)(C)C` [Example 76, 2-Chloro-N-ethyl-6-(trimethylsilyl)thiobenzamide], the inhibition at 1 ppm is 45%.
On the same count and under the same terms, the value for `CC(C)SC(=O)c1c(Cl)cccc1[Si](C)(C)C` [Example 78, 2-Chloro-6-(trimethylsilyl)-benzenecarbothioic acid, S-(1-methylethyl) ester] was 12%.

Staying with this assay, now noted: Gaeumannomyces graminis; 10 ppm in minimal media agar; dark, 19-20° C., 4 to 5 days; diameter of mycelial growth; read-out: In vitro (ppm) 10, Percent Inhibition.
Take `CCN(COC)C(=O)c1c(Cl)cccc1[Si](C)(C)C` [Example 46, 2-Chloro-N-ethyl-N-(methoxymethyl)-6-(trimethylsilyl)benzamide]: the inhibition at 10 ppm was found to be 44%.
Regarding `CCN(C(C)=O)C(=O)c1c(Cl)cccc1[Si](C)(C)C` [Example 47, N-Acetyl-2-chloro-N-ethyl-6-(trimethylsilyl)benzamide], the inhibition at 10 ppm is 70%.
Consider `CCN(COC)C(=O)c1ccccc1[Si](C)(C)C` [Example 50, N-Ethyl-N-(methoxymethyl)-2-(trimethylsilyl)benzamide], for which the inhibition at 10 ppm came out at 20%.
For `CCN(CC)C(=O)c1ccc(C)c(F)c1[Si](C)(C)C` [Example 57, N,N-Diethyl-3-fluoro-4-methyl-2-(trimethylsilyl)benzamide], the inhibition at 10 ppm is 90%.
In the case of `CCN(CC)C(=O)c1ccc(C)cc1[Si](C)(C)C` [Example 58, N,N-Diethyl-4-methyl-2-(trimethylsilyl)benzamide], the inhibition at 10 ppm amounted to 55%.
With `CCN(CC)C(=O)c1c(Cl)cc(C)cc1[Si](C)(C)C` [Example 59, N,N-Diethyl-2-chloro-4-methyl-6-(trimethylsilyl)benzamide], the inhibition at 10 ppm turned out to be 26%.
With `CCN(CC)C(=O)c1c(C)cc(C)cc1[Si](C)(C)C` [Example 60, N,N-Diethyl-2,4-dimethyl-6-(trimethylsilyl)benzamide], the inhibition at 10 ppm was determined as 19%.
With `CCN(CC)C(=O)c1cc(C)ccc1[Si](C)(C)C` [Example 63, N,N-Diethyl-5-methyl-2-(trimethylsilyl)benzamide], the inhibition at 10 ppm worked out at 69%.
On to `CCN(CC)C(=O)c1cccc(C)c1[Si](C)(C)C` [Example 64, N,N-diethyl-3-methyl-2-(trimethylsilyl)benzamide], for which the inhibition at 10 ppm was 31%.
Same read-out and setting: the figure for `CCNC(=O)c1ccsc1[Si](C)(C)C` [Example 70, N-Ethyl-2-(trimethylsilyl)-3-thiophenecarboxamide] is 44%.
As for `CCNC(=O)c1c(Cl)cccc1-c1ccccc1C` [Example 72, 3-Chloro-N-ethyl-2′-methyl-[1,1′-biphenyl]-2-carboxamide], the inhibition at 10 ppm was 69%.
Consider `CCNC(=O)c1c(Cl)cccc1-c1cccc2ccccc12` [Example 73, 2-Chloro-N-ethyl-6-(1-naphthalenyl)benzamide], for which the inhibition at 10 ppm came to 83%.
As to `CCN(CC)C(=S)c1ccc(C)c(F)c1[Si](C)(C)C` [Example 75, N,N-Diethyl-3-fluoro-4-methyl-2-(trimethylsilyl)thiobenzamide], the inhibition at 10 ppm was 31%.
With `CCNC(=S)c1c(Cl)cccc1[Si](C)(C)C` [Example 76, 2-Chloro-N-ethyl-6-(trimethylsilyl)thiobenzamide], the inhibition at 10 ppm turned out to be 79%.
With `CC(C)SC(=O)c1c(Cl)cccc1[Si](C)(C)C` [Example 78, 2-Chloro-6-(trimethylsilyl)-benzenecarbothioic acid, S-(1-methylethyl) ester], the inhibition at 10 ppm worked out at 62%.
